Assay results as given in ChEMBL document CHEMBL1201862, “PubChem BioAssay data set” (2004).
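Five compound concentrations were applied to cells in 96-well plates for 48 hours; endpoints were derived by simple linear interpolation of the resulting dose-response curve. Here, GI50 denotes the concentration required for 50% inhibition of growth.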 Activity calls are given as the source filed them. No stated cut-off is given here; in the data, active = GI50 up to about 1.1 µM and inactive = higher.

What was measured:
Test in all cases: inhibition of tumour cell growth, NCI panel, 48 h
SNB-75 = tested on: SNB-75
CCRF-CEM = tested on: CCRF-CEM
SF-295 = tested on: SF-295
RPMI-8226 = tested on: RPMI-8226
MDA-MB-231 = tested on: MDA-MB-231
SN12C = tested on: SN12C
U-251 = tested on: U-251
A498 = tested on: A498
UACC-257 = tested on: UACC-257
SF-539 = tested on: SF-539
TK-10 = tested on: TK-10
MCF7 = tested on: MCF7
EKVX = tested on: EKVX
NCI-H460 = tested on: NCI-H460
Hs-578T = tested on: Hs-578T
NCI-H522 = tested on: NCI-H522
HCT-116 = tested on: HCT-116
HCC 2998 = tested on: HCC 2998
UO-31 = tested on: UO-31

| SMILES | GI50 (SNB-75) | GI50 (CCRF-CEM) | GI50 (SF-295) | GI50 (RPMI-8226) | GI50 (MDA-MB-231) | GI50 (SN12C) | GI50 (U-251) | GI50 (A498) | GI50 (UACC-257) | GI50 (SF-539) | GI50 (TK-10) | GI50 (MCF7) | GI50 (EKVX) | GI50 (NCI-H460) | GI50 (Hs-578T) | GI50 (NCI-H522) | GI50 (HCT-116) | GI50 (HCC 2998) | GI50 (UO-31) |
| --- | --- | --- | --- | --- | --- | --- | --- | --- | --- | --- | --- | --- | --- | --- | --- | --- | --- | --- | --- |
| CC(C)(CCC(C)(C)c1ccccc1)c1ccccc1 | 18 µM (inactive) | 18.4 µM (inactive) | 17 µM (inactive) | 15.1 µM (inactive) | 16.7 µM (inactive) | 18.2 µM (inactive) | 16.7 µM (inactive) | 17.9 µM (inactive) | 14.3 µM (inactive) | 21.1 µM (inactive) | 21.6 µM (inactive) | 17.9 µM (inactive) | 17.7 µM (inactive) | 17.2 µM (inactive) | 22.1 µM (inactive) | 15.7 µM (inactive) | 14.7 µM (inactive) |  |  |
| Cc1cc(NC(=O)NC(=O)c2ccccc2NC(=O)CN)ccc1Oc1ncc(Br)cn1 | 0.139 µM (active) | 0.403 µM (active) | 0.0661 µM (active) | 1.57 µM (inactive) | 0.297 µM (active) | 1.16 µM (inactive) | 0.743 µM (active) | 0.454 µM (active) | 3.52 µM (inactive) |  | 9.62 µM (inactive) | 0.259 µM (active) | 1.52 µM (inactive) | 0.743 µM (active) | 0.0308 µM (active) |  | 0.33 µM (active) | 5.21 µM (inactive) | 0.246 µM (active) |
| CN(C)CCCn1c(Cn2nc3ccccc3n2)nc2cc(C(F)(F)F)ccc21 |  | 13.2 µM (inactive) | 44.1 µM (inactive) |  | 28.9 µM (inactive) | 47.8 µM (inactive) | 26.4 µM (inactive) | 17.2 µM (inactive) | 16.8 µM (inactive) |  | 24 µM (inactive) | 22 µM (inactive) | 28.3 µM (inactive) | 26.4 µM (inactive) | 36.2 µM (inactive) | 14.6 µM (inactive) | 36 µM (inactive) | 7.6 µM (inactive) | 10.5 µM (inactive) |
| CCN(CC)C(=O)COc1cc2c(O)c3c(O)c(C)c4c(c13)C(=O)C(C)(OC=CC(OC)C(C)C(OC(C)=O)C(C)C(O)C(C)C(O)C(C)C=CC=C(C)C(=O)N2)O4 (configuration not stated) | > 100 µM (inactive) | > 100 µM (inactive) | > 100 µM (inactive) | 37.4 µM (inactive) | > 100 µM (inactive) | > 100 µM (inactive) | > 100 µM (inactive) | > 100 µM (inactive) | > 100 µM (inactive) |  | > 100 µM (inactive) | > 100 µM (inactive) | > 100 µM (inactive) | > 100 µM (inactive) | > 100 µM (inactive) |  | > 100 µM (inactive) | > 100 µM (inactive) | > 100 µM (inactive) |
| COP(C)(=O)C(Cc1c[nH]c2ccccc12)NC(=O)OCc1ccccc1 (configuration not stated) |  | > 100 µM (inactive) | > 100 µM (inactive) | > 100 µM (inactive) | > 100 µM (inactive) | > 100 µM (inactive) | > 100 µM (inactive) | > 100 µM (inactive) | > 100 µM (inactive) | > 100 µM (inactive) | > 100 µM (inactive) | > 100 µM (inactive) | > 100 µM (inactive) | > 100 µM (inactive) | > 100 µM (inactive) |  | > 100 µM (inactive) | > 100 µM (inactive) | > 100 µM (inactive) |
| COc1c(C)c(OC)c(C(=O)CC(C)C)c(OC)c1C |  | > 100 µM (inactive) | > 100 µM (inactive) | 20.3 µM (inactive) | > 100 µM (inactive) | > 100 µM (inactive) | > 100 µM (inactive) | > 100 µM (inactive) | > 100 µM (inactive) | > 100 µM (inactive) | > 100 µM (inactive) | > 100 µM (inactive) | > 100 µM (inactive) |  | > 100 µM (inactive) | > 100 µM (inactive) | 65.6 µM (inactive) | > 100 µM (inactive) | 49.9 µM (inactive) |
| CCCCCCCCCCOc1ccc(/N=N/c2nnc(-c3ccc(OCCCCC)cc3)s2)cc1 |  | > 100 µM (inactive) | 62.5 µM (inactive) | > 100 µM (inactive) | > 100 µM (inactive) | > 100 µM (inactive) | > 100 µM (inactive) | 49.4 µM (inactive) | 49.9 µM (inactive) | > 100 µM (inactive) | > 100 µM (inactive) | 39.2 µM (inactive) | > 100 µM (inactive) | > 100 µM (inactive) | > 100 µM (inactive) | > 100 µM (inactive) | > 100 µM (inactive) | > 100 µM (inactive) |  |
| O=C(Cn1c(C(=O)/C=C/c2cccs2)nc2ccccc21)c1ccc(Cl)cc1 | 24.2 µM (inactive) |  |  | 8.05 µM (inactive) | 16.8 µM (inactive) | 16.7 µM (inactive) | 14.4 µM (inactive) | 19.9 µM (inactive) | 17.9 µM (inactive) | 32.2 µM (inactive) | 27 µM (inactive) | 16.3 µM (inactive) |  | 10.5 µM (inactive) | 12.8 µM (inactive) |  | 16.6 µM (inactive) | 14.8 µM (inactive) | 24.1 µM (inactive) |
| Cc1ccc([Se](=C(C(=O)c2ccccc2)C(=O)c2ccccc2)c2ccc(C)cc2)cc1 | 37.8 µM (inactive) |  | 22.3 µM (inactive) | 4.14 µM (inactive) | 15.8 µM (inactive) | 12.8 µM (inactive) | 20.6 µM (inactive) | 14.8 µM (inactive) | 17.5 µM (inactive) | 25.6 µM (inactive) | 23.4 µM (inactive) | 26.7 µM (inactive) |  | 25.5 µM (inactive) | 22.8 µM (inactive) | 22.1 µM (inactive) | 34.4 µM (inactive) |  | 30.4 µM (inactive) |
| O=c1[nH]nc(Cc2ccccc2)n1/N=C/c1ccccc1Cl |  |  | 52.2 µM (inactive) | > 100 µM (inactive) | > 100 µM (inactive) | > 100 µM (inactive) | 53.1 µM (inactive) | > 100 µM (inactive) | > 100 µM (inactive) | > 100 µM (inactive) | > 100 µM (inactive) | > 100 µM (inactive) | > 100 µM (inactive) | > 100 µM (inactive) | 43.4 µM (inactive) | > 100 µM (inactive) | > 100 µM (inactive) | > 100 µM (inactive) | > 100 µM (inactive) |
| CC(C)(C)OC(=O)NC(Cc1ccc(OCc2ccccc2)cn1)C(=O)O (configuration not stated) |  | > 10 µM (inactive) | > 100 µM (inactive) | > 100 µM (inactive) | > 100 µM (inactive) | > 100 µM (inactive) | > 100 µM (inactive) | > 100 µM (inactive) | > 100 µM (inactive) | > 100 µM (inactive) | > 100 µM (inactive) | > 100 µM (inactive) | > 100 µM (inactive) | > 100 µM (inactive) | > 100 µM (inactive) | 67 µM (inactive) | > 100 µM (inactive) | > 100 µM (inactive) | > 100 µM (inactive) |
| CCN1C[C@]2(C)CC[C@H](OCc3ccccc3)C34C5C[C@@H]6CC[C@](O)(C(C[C@@H]32)C14)C5[C@H]6OCc1ccccc1 (some centres not stated) | 49 µM (inactive) | 56.5 µM (inactive) | > 100 µM (inactive) | 31 µM (inactive) | 52.1 µM (inactive) | > 100 µM (inactive) | 64.9 µM (inactive) | > 100 µM (inactive) | 29.9 µM (inactive) | > 100 µM (inactive) | 45.8 µM (inactive) | 7.01 µM (inactive) | 44.7 µM (inactive) | 31.2 µM (inactive) | > 100 µM (inactive) |  | 42.7 µM (inactive) | 20 µM (inactive) | 73.1 µM (inactive) |
